The test system of the series is RPTE/hTERT cells. Briefly: Cell viability assay, CellTiter-Blue fluorescence. As to the method:
RPTE/hTERT cells were treated with MAT2A inhibitors at increasing concentrations for 48 hrs and assayed for cell viability using CellTiter-Blue fluorescence. Experiments were conducted using biological triplicates.
Experiment was conducted using biological triplicates.
Cell viability was assessed using the Cell-Titer-Blue assay (Promega), following manufacturers guidelines.
In general terms: Alamar Blue is a resazurin reagent that responds to reducing activity.

Molecules are shown by their SMILES.

`COc1ccc(-c2c(Nc3ccccn3)[nH]c3c(C4=CCCCC4)c(-c4ccccc4)nn3c2=O)cc1` [AG-270]: the “effect on cell viability and metabolism” value by setting is: (MAT2A inhibitor (AG270 1 μM, AZ33 125 nM) in combination with Ilaprazole (5 μM), until 144 hr) “little effect”; (at concentrations inhibiting BKPyV replication, 48 hrs) “little effect”.

The values are drawn from patent publication US20250221981A1, “MAT2A INHIBITOR AND/OR TSG101 INHIBITOR FOR USE IN ANTIVIRAL THERAPY” (CAMBRIDGE ENTERPRISE LIMITED, priority 2022, published 2025).
